The source of these data is ChEMBL document CHEMBL2177019, “Carbamate derivatives of indolines as cholinesterase inhibitors and antioxidants for the treatment of Alzheimer's disease” (J Med Chem, 2012).

In general, IC50 refers to the concentration needed to halve the response being measured.

Activity calls are given as the source filed them. The rule behind the calls is not given here.

Series [1] is described as follows: Antioxidant activity assessed as scavenging of glucose oxidase-generated H2O2 and hydroxyl radicals by chemiluminescence assay. Format: functional.
In the next series the target is Butyrylcholinesterase (Equus caballus, UniProt Q9N1N9). Briefly: Inhibition of equine BuChE after 120 mins by Ellman's method. (In general: Ellman's reagent forms a yellow product with free thiols.)
The nature of series [2]: Antioxidant activity assessed as scavenging of morpholino sydononimine based nitric oxide release by chemiluminescence assay. The class given is functional.
The test system of series [3] is H9c2. The series is described as follows: Prevention of apoptosis in rat H9c2 cells assessed as reduction in fall of mitochondrial membrane potential at 100 nM after 1 hr. Format: functional. Details: scale not given: the % may be the effect or the level left.
A further series addresses T1, Acetylcholinesterase (Bos taurus, UniProt P23795).
T1 sequence (P23795 whole entry): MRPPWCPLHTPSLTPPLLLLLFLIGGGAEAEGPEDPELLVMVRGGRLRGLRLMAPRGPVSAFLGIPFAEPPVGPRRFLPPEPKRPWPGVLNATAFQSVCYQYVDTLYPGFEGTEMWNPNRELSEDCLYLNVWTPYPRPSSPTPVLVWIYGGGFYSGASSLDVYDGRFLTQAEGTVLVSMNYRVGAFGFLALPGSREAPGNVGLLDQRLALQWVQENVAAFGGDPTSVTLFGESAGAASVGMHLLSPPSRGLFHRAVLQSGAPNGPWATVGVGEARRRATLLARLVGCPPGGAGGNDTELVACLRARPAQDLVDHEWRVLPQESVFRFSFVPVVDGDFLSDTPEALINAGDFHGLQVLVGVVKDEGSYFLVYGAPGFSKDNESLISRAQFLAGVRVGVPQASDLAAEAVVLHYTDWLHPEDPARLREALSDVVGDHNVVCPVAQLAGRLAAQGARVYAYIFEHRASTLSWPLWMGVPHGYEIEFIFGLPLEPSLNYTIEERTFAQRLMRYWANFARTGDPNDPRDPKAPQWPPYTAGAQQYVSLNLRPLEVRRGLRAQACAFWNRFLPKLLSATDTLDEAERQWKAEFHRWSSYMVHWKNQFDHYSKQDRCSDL
The series is described as follows: Inhibition of bovine AChE after 120 mins by Ellman's method.

The nature of series [4]: Cytotoxicity against rat H9c2 cells assessed as cell viability in absence of H2O2. The class given is cell-based. Details: concentration or dose not given beside the values. The following applies: read-out: Activity.
Series [5] has as its system H9c2. The series is described as follows: Prevention of apoptosis in rat H9c2 cells assessed as protection against oxidative stress-induced cytotoxicity at 100 nM […] by Alamar blue assay. Format: functional.
The species entered for series [6] is Gallus gallus. Briefly: Prevention of apoptosis in chick primary telencephalon neurons assessed as protection against serum deprivation-induced cytotoxicity at 1 to 10 uM by MTT assay. Format: functional.
Series [7] is filed under the species Gallus gallus. Briefly: Prevention of apoptosis in chick primary telencephalon neurons assessed as protection against serum deprivation-induced oxidative stress at 10 nM measured on day 8 by MTT assay. The class given is functional. For orientation: Tetrazolium assays rely on reduction of a dye to a coloured formazan, in cell work by metabolically active cells.

Series [8] concerns Radical scavenging activity. The series is described as follows: Antioxidant activity of the compound assessed as DPPH radical scavenging at 10 uM after 30 secs by spectrophotometry. Format: functional.
Series [9] can be described thus: Antioxidant activity of the compound assessed as DHR radical scavenging activity at 10 uM by fluorescence assay. The class given is functional.
The nature of series [10]: Selectivity ratio of IC50 for equine BuChE to IC50 for bovine AChE.
Series [11] has as its system H9c2. The series is described as follows: Prevention of apoptosis in rat H9c2 cardiomyocytes assessed as protection against oxidative stress-induced cytotoxicity at 1 pM to 1 nM after 1 hr by Alamar blue assay. The class given is functional.
A short description of series [12]: Antioxidant activity of the compound assessed as scavenging of peroxynitrite by chemiluminometric method. The class given is functional.
Series [13] can be described thus: Antioxidant activity of the compound assessed as scavenging of hydroxyl radical by chemiluminometric method. The class given is functional.
The next series relates to Liver microsomes. Briefly: Metabolic stability in human liver microsomes. The class given is ADME, Microsome. On the technique in general: Liver microsomes are a subcellular fraction often used to study metabolism.
Series [14] is described as follows: Chemical stability in MeCN/water solution used as 100 mg/mL solution at room temperature. The following applies: buffer. The class given is physicochemical.
The subject of another series is Liver. The series is described as follows: Metabolic stability in mouse liver microsomes. Format: ADME, Microsome.
The nature of series [15]: Chemical stability in MeCN/water solution used as 0.5 mg/mL solution at -20 degC. The settings on record: buffer. Format: physicochemical.
A short description of series [16]: Chemical stability in MeCN/water solution used as 50 mg/mL solution at -20 degC. Format: physicochemical. The settings on record: buffer.
Series [17] is described as follows: Stability in human plasma assessed as compound hydrolysis at 37 degC within 90 mins. The settings on record: read-out: Drug degradation. The class given is ADME, cell-free.
A short description of series [18]: Chemical stability in MeCN/water solution at 25 degC. The settings on record: buffer. Format: physicochemical.

Chain of Butyrylcholinesterase (Q9N1N9 whole entry): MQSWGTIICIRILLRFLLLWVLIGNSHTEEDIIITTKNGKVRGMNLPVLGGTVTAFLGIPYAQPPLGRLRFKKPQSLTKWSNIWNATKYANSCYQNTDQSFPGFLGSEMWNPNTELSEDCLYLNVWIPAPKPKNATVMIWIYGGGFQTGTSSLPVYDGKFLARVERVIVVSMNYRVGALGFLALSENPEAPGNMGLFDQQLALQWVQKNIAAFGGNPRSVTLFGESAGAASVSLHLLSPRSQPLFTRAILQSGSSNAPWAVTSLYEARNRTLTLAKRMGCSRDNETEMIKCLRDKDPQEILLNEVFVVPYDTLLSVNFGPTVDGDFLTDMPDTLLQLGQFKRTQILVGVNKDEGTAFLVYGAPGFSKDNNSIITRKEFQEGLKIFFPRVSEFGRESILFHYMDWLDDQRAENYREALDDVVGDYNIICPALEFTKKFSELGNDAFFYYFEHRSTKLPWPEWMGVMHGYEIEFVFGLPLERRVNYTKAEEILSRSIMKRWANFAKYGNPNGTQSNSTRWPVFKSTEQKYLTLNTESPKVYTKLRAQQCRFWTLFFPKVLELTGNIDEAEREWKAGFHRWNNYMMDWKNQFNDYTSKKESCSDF

Consider `CCN(C)C(=O)Oc1ccc2c(c1)NCC2CCC(=O)OC.Cl` (stereo not given), for which the IC50 in [1] worked out at 1.45 µM; against Butyrylcholinesterase it was 3.9 µM; in series [2], 2.36 µM; at Acetylcholinesterase it was 55.2 µM. For the same compound, the Activity is on record as 77% in the series on H9c2 [3] and 58.5% in the series on H9c2 [5]. Also, the viability in [4] is 100%.

Consider `Cl.Oc1cccc2c1CCN2`, for which, in series [1], the IC50 turned out to be 1.15 µM. In addition, the outcome in the series filed under Gallus gallus [6] and in the series listed under Gallus gallus [7] was Active. Besides, the Activity in the series on H9c2 [5] is reported as 38%.

As for `COC(=O)CCC1CNc2cccc(O)c21.Cl` (stereo not given), the results for the Activity (in series [8]; in [9]; with H9c2 [5]) were 32.4%, 10.6% and 57.3%, respectively. Moreover, the IC50 turned out to be 0.67 µM in [1] and 0.25 µM in [2]. The result in the series listed under Gallus gallus [6] and in the series filed under Gallus gallus [7] was Active. In [4], the viability stood at 121%.

As to `COC(=O)CCC1CNc2cc(O)ccc21.Cl` (stereo not given), the Activity was determined as 28.2% in [8], 87% in the series with H9c2 [3], 52.1% in series [9] and 50% in the series with H9c2 [5]. Also, the figures for the IC50 in series [1] and in series [2] were 1.34 µM and 1.38 µM, respectively.

In the case of `CCN(C)C(=O)Oc1cccc2c1C(CCC(=O)O)CN2C.Cl` (stereo not given), the IC50 in series [1] worked out at 1.64 µM; against Butyrylcholinesterase it was 9.7 µM; against Acetylcholinesterase it was 124 µM. Moreover, the Ratio IC50 in series [10] turned out to be 0.078. Moreover, the Activity with H9c2 [11] is recorded as 43%; in the series on H9c2 [5], 57.4%. Moreover, the viability in [4] is 106%.

Turning to `CCN(C)C(=O)Oc1cccc2c1C(CCC(=O)OC)CN2` (stereo not given), in series [8], the Activity is 24.8%. Moreover, the outcome in the series filed under Gallus gallus [6] and in the series filed under Gallus gallus [7] was Active. Besides, the Ratio IC50 in series [10] came out at 0.04.

For `CCN(C)C(=O)Oc1cccc2c1CCN2.Cl`, the Activity in [8] turned out to be 15%; with H9c2 [5], 35.3%. The IC50 worked out at 1.38 µM in series [1], 0.7 µM against Butyrylcholinesterase, 0.57 µM in [2] and 7.2 µM against Acetylcholinesterase. Further, the result in the series filed under Gallus gallus [6] and in the series filed under Gallus gallus [7] was Active. For the same compound, in [10], the Ratio IC50 stood at 0.1.

Consider `COc1ccc2[nH]cc(CCNC(C)=O)c2c1` [MELATONIN], for which the IC50 in series [1] worked out at 95.8 µM; in series [12], 127 µM; in [13], 537 µM; in series [2], 1020 µM.

Regarding `CCCCN(C)C(=O)Oc1ccc2c(c1)NCC2CCC(=O)OC.Cl` (stereo not given), the IC50 is 24.1 µM in series [1], 404 µM against Butyrylcholinesterase and 62.3 µM at Acetylcholinesterase. In [10], the Ratio IC50 came to 6.5. Moreover, the figures for the Activity in the series with H9c2 [3] and in the series on H9c2 [5] were 54% and 40.1%, respectively. Besides, in series [4], the viability was determined as 87.8%.

Regarding `CCN(C)C(=O)Oc1ccc2c(c1)NCC2CCC(=O)OC.O=C(O)CC(O)(CC(=O)O)C(=O)O` (stereo not given), the Stability result in the series on Liver microsomes is recorded as “Unstable”; in [14], “Unstable”; in the series with Liver, “Unstable”; in series [15], “Stable”; in series [16], “Stable”.

Regarding `CCN(C)C(=O)Oc1cccc2c1C(CCC(=O)OC)CN2.CS(=O)(=O)O` (stereo not given), the Stability entry was “Unstable” with Liver microsomes, “Unstable” in the series on Liver and 9 days in [18]. In series [17], the metabolised at […] was 40%.
